Holding throughout (assay): DTP human tumour cell line panel, 48 h
The subject of test [1] is LOX IMVI melanoma.
The subject of test [2] is A498 renal.
The subject of test [3] is DMS 114 small cell lung.
Test [4] relates to DMS 273 small cell lung.
Test [5] relates to SK-MEL-5 melanoma.
Test [6] has as its system HCT-116 colon.
The test system of test [7] is LXFL 529 NSCLC.
For test [8], the system named is OVCAR-5 ovarian.
The subject of test [9] is HOP-18 NSCLC.
Test [10] concerns T-47D breast.
The test system of test [11] is PC-3 prostate.

Where “and” joins values, the source holds several entries; their conditions need not be identical. Equal values may be shown once.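 Cells were grown in 96-well plates and exposed to each compound for 48 hours at five concentrations; endpoints were interpolated linearly between bracketing concentrations, or set to the highest concentration if not reached. The concentration for 50% growth inhibition is given as GI50. TGI: concentration producing complete growth inhibition.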

Consider `O=C1c2ccccc2C2C1N2C(=O)C(F)(F)F` (stereo not drawn), for which the TGI in test [1], in test [2], in [3], in [4], in test [5] and in test [6] was more than 100 µM throughout. The TGI in test [7], in test [8] and in test [9] was more than 100 µM throughout.

For `COc1nc(N)c(C(=O)CCl)c(=O)n1C`, the total growth inhibition concentration (TGI) in [1] worked out at 20.8 µM; in [2], 32.4 µM; in test [3], 33.9 µM; in [5], 28.5 µM; in test [6], 31.3 µM; in [7], 27.1 µM. The results for the TGI in test [8] and in test [9] were 37.2 µM and 31.2 µM, respectively.

With `Cc1cccc2c(=O)cc(-c3ccccc3)[nH]c12`, the TGI in test [1] was more than 100 µM; in test [2], 36 µM; in [3], more than 100 µM; in test [4] it was more than 100 µM; in test [5], 78.4 µM; in [6], more than 100 µM. The molecule further registered a TGI in [7] of more than 100 µM.

Turning to `CCN(CC)CCC(=O)Nc1ccc2c(c1)C(=O)c1ccc(NC(=O)CCN(CC)CC)cc1C2=O`, the TGI in [1] stood at 6.19 µM; in [2], 17.8 µM; in [3] it was 13 µM; in test [4], 3.82 µM; in test [5], 19.8 µM; in [6] it was 10.1 µM. The TGI in [7] was found to be 12 µM; in test [8], 25.1 µM; in [9], 18.4 µM.

As to `C[C@]12CC[C@H](O)CC1=CC[C@@H]1C2CC[C@]2(C)C(=O)N(N)C(=O)CC12` (stereo partly drawn), the TGI in test [1], in test [2], in test [4], in [5], in test [6] and in test [7] was more than 100 µM throughout. Also, the TGI in test [8] and in test [9] was more than 100 µM throughout.

On to `[N-]=[N+]=Nc1cc(=O)oc2ccccc12`, for which the TGI in [1], in test [3], in test [4], in test [5], in test [6] and in [7] was more than 100 µM each time. The TGI in test [8] and in test [9] was more than 100 µM throughout.

`Cc1cc(=O)[nH]c(NN2C(Cl)C(=O)C2c2ccccc2O)n1` (stereo not drawn): the TGI in test [1] is more than 100 µM; in test [2] it was more than 100 µM; in test [3], 6.44 µM; in test [10], more than 100 µM; in test [4] it was 15.3 µM; in test [11] it was more than 100 µM. The TGI in test [5] is 17.2 µM; in [6], more than 42.7 µM; in [7] it was 54.5 µM; in test [8], more than 100 µM; in test [9] it was 8.97 µM.

With `CCCCCCCCCCCOc1ccc(C(=O)C(=O)c2ccc(OCCCCCCCCCCC)c(OCCCCCCCCCCC)c2)cc1OCCCCCCCCCCC`, the TGI in [1], in [2], in test [3], in test [4], in test [5] and in test [6] was more than 100 µM throughout. The TGI in [7] and in test [8] was more than 100 µM each time.

Regarding `CC1C=C(CCCCCCCCCCCC[C@@H](O)[C@@H]2CC[C@@H]([C@@H]3CC[C@@H](C(O)CCCCCCCCCCCCC4=C[C@H](C)OC4=O)O3)O2)C(=O)O1` (stereo partly drawn), the TGI in [1] is more than 100 µM; in test [2], more than 100 µM; in test [3], more than 100 µM; in test [4] it was more than 100 µM; in [5] it was 27.4 µM; in test [6], more than 100 µM. Besides, the TGI in test [7], in test [8] and in [9] was more than 100 µM each time.

With `Brc1ccc(N=c2nc3ccccn3n3nc(-c4ccccc4)cc23)cc1`, the TGI in test [3], in test [5], in test [6], in [7] and in [9] was more than 100 µM throughout.

For `CCC12C=CCN3CCC4(C(=C(C(=O)OC)[C@@H]1O)Nc1ccccc14)C32` (stereo partly drawn), the TGI in test [1] came out at 3.26 µM; in [2] it was 5.28 µM; in test [3] it was 3.24 µM; in test [4], 3.37 µM; in test [5] it was 3.45 µM; in test [6], 2.95 µM. The figures for the TGI in [7], in test [8] and in [9] were 3.13 µM, 4.67 µM and 4.87 µM, respectively.

As to `CC(=O)Nc1ccc(-c2nnc(SCC(=O)Nc3ccc([N+](=O)[O-])cc3)o2)cc1`, the TGI in test [1] stood at 18.1 µM; in test [3], 14.6 µM; in test [4], 22.6 µM; in test [5] it was 25.9 µM; in test [6] it was 25 µM; in [7], 20.4 µM. Further, the TGI in test [8] came to 36 µM; in test [9], 29.9 µM.

On to `CC(C)CCCCCCCCCCCCC(=O)NCC(=O)NC1C(C)OC(Nc2ncnc3c2ncn3C)C(O)C1O` (stereo not drawn), for which the TGI is more than 100 µM in test [1]; 24.2 µM in test [2]; more than 100 µM in [3]; 21.6 µM in [4]; more than 100 µM in test [5]; 97 µM in test [8]. In test [9], this molecule came in with a total growth inhibition concentration (TGI) of more than 30.1 µM.

Turning to `C[n+]1c2ccccc2c(/C=N\NS(=O)(=O)c2ccc(O)c(C(=O)O)c2)c2ccccc21`, the TGI in [1], in test [2], in [3], in test [4], in test [5] and in [6] was more than 100 µM throughout. In test [8], this molecule had a concentration for total growth inhibition (TGI) of more than 100 µM.

`CNS(=O)(=O)NNS(=O)(=O)c1ccc2ccccc2c1`: the TGI in test [1], in [2], in test [3], in test [4], in [5] and in test [6] was more than 100 µM in each case. The TGI in [7], in [8] and in [9] was more than 100 µM each time.

Take `CN(C)CC[N+]1=Nc2cccc3cccc(c23)N1`: the TGI in test [1] is more than 63.7 µM; in test [2] it was more than 100 µM; in test [3], more than 100 µM; in [4] it was 35.6 µM; in [5], more than 100 µM; in [6] it was more than 72.7 µM. For the same molecule, the TGI in test [7], in test [8] and in test [9] was more than 100 µM throughout.

Regarding `Cc1c2cnccc2c(C)c2c1c1ccccc1n2CCCN`, the GI50 is 0.163 µM in [1]; 0.468 µM in test [2]; 1.01 µM in test [5]; 0.121 µM in test [6]; 0.196 µM in test [8]. For the same molecule, the TGI in test [1] was 0.402 µM and 0.569 µM; in test [2] it was 1.62 µM and 1.15 µM; in test [3], 1.02 µM; in [10], 2.03 µM; in test [4], 0.619 µM; in [11], 0.644 µM. Moreover, the TGI in [5] is 1.44 µM and 2.17 µM; in test [6] it was 0.609 µM and 0.628 µM; in [8], 1.71 µM and 0.874 µM; in test [9], 2.65 µM.

On to `N#CN=C(N(Cc1ccccc1)Cc1ccccc1)N(Cc1ccccc1)Cc1ccccc1`, for which the TGI in [1], in test [2], in [3], in [6], in [7] and in test [8] was more than 100 µM in each case. The molecule further displayed a TGI in test [9] of more than 100 µM.

The values are drawn from PubChem BioAssay (NCI).
